Where a name gives a salt, the structure may show the parent alone.
What was measured:
[1] = biological target: T1, IDO1 in Hela cancer cells (Homo sapiens, UniProt P14902); test: IDO1 Cellular Assay (kynurenine production in IFN-γ stimulated Hela cancer cells); format: cell-based; conditions: human IFN-γ 50 ng/mL, 48 hours incubation, kynurenine at 490 nm
T1 construct: endogenous in cells; host or cells: Hela cancer cells stimulated with human IFN-γ
Experimental: Hela cancer cells (5×10^3 per well) with 85 μL DMEM medium containing 10% FBS were seeded in a 96-well plate and incubated at 95% humidity and 5% CO2 at 37° C. for 24 hours. human IFN-γ (10 μL, 50 ng/mL final concentration) and 5 μL serial dilutions of the test compounds were added into each well. The test compounds were dissolved in DMSO, and successively diluted with pH7.5 buffer (with final DMSO concentration of 0.25%) resulting in final concentrations of the test compounds ranging from 0 to 25 μM (0, 2.5, 7.5, 25, 75, 250, 750, 2500, 7500, & 25000 nM). After 48 hours of incubation, 70 uL of the supernatant per well was transferred to a new 96 well plate. Trichloroacetic acid (6.1 N, 8 μL) was mixed into each well and incubated at 50° C. for 30 min to hydrolyze N-formylkynurenine produced by IDO to kynurenine. The reaction mixture was then centrifuged for 10 min at 2500 RPM to remove sediments. 50 μL of the supernatant per well was transferred to another 96 well plate and mixed with 50 uL of 2% (w/v) p-dimethylaminobenzaldehyde in acetic acid. The yellow color derived from kynurenine was measured at 490 nm using a microplate reader. Percent inhibition of the test compounds was determined by measuring the decrease in kynurenine as compared to the control of DMSO vehicle, which was calculated by formula of (WC-WT)/WC, where WC is the mean absorbance of the control well minus blank well; WT is the mean absorbance of the test well minus the blank well. Data was analyzed by GraphPad Prism 5 and the IC50 values were obtained by non-linear regression.
(§1) The IC50 values of for Compounds disclosed are listed in Table 2, A′: ≤0.5 μM; B′: >0.5 μM and ≤1 μM; C′: >1.0 μM and ≤5 uM; and D′: >5 μM.

[2] = biological target: T2, TDO2 in A172 cancer cells (Homo sapiens, UniProt P48775); test: TDO2 Cellular Assay (kynurenine production in A172 cancer cells); format: cell-based; conditions: L-Trp 1 mM, 24 hours incubation, kynurenine at 490 nm
T2 construct: endogenous in cells; host or cells: A172 cancer cells
Experimental: A172 cancer cells (3×10^4 per well) in 85 μL DMEM medium containing 10% FBS were seeded in a 96-well plate and incubated at 95% humidity and 5% CO2 at 37° C. for overnight. On the next day, L-Trp solution (10 μL, 1 mM final concentration) and serial dilutions of the test compounds and DMEM medium resulting in a total final volume of 100 μL each well. The test compounds were dissolved in DMSO and successively diluted with pH7.5 butter (with final DMSO concentration of 0.25%) resulting in final concentrations of the test compounds ranging from 0 to 25 μM (0, 2.5, 7.5, 25, 75, 250, 750, 2500, 7500, & 25000 nM). After 24 hours of incubation, 70 uL of the supernatant per well was transferred to a new 96 well plate. 8 μL of trichloroacetic acid (6.1 N) was mixed into each well and incubated at 50° C. for 30 min to hydrolyze N-formylkynurenine to kynurenine. The reaction mixture was then centrifuged for 10 min at 2500 RPM to remove sediments. 50 μL of the supernatant per well was transferred to another 96 well plate and mixed with 50 μL of 2% (w/v) p-dimethylaminobenzaldehyde in acetic acid. The yellow color derived from kynurenine was measured at 490 nm using a microplate reader. Percent inhibition of the test compounds was determined by measuring the decrease in kynurenine as compared to the control of DMSO vehicle, which was calculated by formula of (WC−WT)/WC, where WC is the mean absorbance of the control well minus blank well; WT is the mean absorbance of the test well minus the blank well. Data was analyzed by GraphPad Prism 5 and the IC50 values were obtained by non-linear regression.
as §1

T2 sequence (P48775 whole entry): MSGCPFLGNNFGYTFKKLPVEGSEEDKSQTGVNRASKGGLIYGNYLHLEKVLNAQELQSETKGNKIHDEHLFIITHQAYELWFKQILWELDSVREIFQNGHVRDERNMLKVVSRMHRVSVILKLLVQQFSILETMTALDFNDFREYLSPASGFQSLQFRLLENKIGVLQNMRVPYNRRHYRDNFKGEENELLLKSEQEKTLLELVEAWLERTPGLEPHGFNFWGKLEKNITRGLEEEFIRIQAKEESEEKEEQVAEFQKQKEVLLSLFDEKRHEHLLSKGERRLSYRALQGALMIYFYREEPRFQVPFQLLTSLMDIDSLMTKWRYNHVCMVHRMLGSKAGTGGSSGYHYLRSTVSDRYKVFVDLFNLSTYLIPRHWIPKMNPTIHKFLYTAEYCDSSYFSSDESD
T1 sequence (P14902 whole entry): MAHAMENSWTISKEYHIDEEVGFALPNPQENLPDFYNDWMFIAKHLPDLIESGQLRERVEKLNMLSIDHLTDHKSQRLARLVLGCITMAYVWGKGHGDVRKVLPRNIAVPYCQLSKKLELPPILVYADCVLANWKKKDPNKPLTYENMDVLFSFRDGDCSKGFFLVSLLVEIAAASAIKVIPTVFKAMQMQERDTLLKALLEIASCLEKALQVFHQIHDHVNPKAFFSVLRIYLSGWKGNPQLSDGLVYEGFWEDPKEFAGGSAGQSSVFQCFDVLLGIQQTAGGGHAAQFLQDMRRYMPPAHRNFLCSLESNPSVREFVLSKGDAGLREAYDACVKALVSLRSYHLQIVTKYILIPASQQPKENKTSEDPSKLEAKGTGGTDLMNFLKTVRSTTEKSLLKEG

Row | SMILES | IC50 [1] [nM] | IC50 [2] [nM]
1 | CC1(C)[C@H]2CN(c3cc(C(F)(F)F)cn4cncc34)C[C@H]2CN1S(C)(=O)=O (racemic) [Example 46, Racemic-8-((3aR,6aS)-4,4-dimethyl-5-(methylsulfonyl)hexahydropyrrolo[3,4-c]pyrrol-2(1H)-yl)-6-(trifluoromethyl)imidazo[1,5-a]pyridine] | > 5000 | 1000 to 5000
2 | O=S(=O)(C1CC1)N1C[C@@H]2C[C@@](O)(c3cc(Cl)cc4cn[nH]c34)C[C@@H]2C1 [Example 100, (3aR,5r,6aS)-5-(5-chloro-1H-indazol-7-yl)-2-(cyclopropylsulfonyl)octahydrocyclopenta[c]pyrrol-5-ol] | > 5000 | 1000 to 5000
3 | CC1(C)[C@H]2CN(c3cc(C(F)(F)F)cc4cncn34)C[C@H]2CN1S(C)(=O)=O (racemic) [Example 50, Racemic-5-((3aR,6aS)-4,4-dimethyl-5-(methylsulfonyl)hexahydropyrrolo[3,4-c]pyrrol-2(1H)-yl)-7-(trifluoromethyl)imidazo[1,5-a]pyridine] | > 5000 | > 5000
4 | O[C@@]1(c2cc(Cl)cc3cn[nH]c23)C[C@H]2CN(c3ccncc3)C[C@H]2C1 [Example 117, (3aR,5r,6aS)-5-(5-chloro-1H-indazol-7-yl)-2-(pyridin-4-yl)octahydrocyclopenta[c]pyrrol-5-ol] | > 5000 | > 5000
5 | O=C(C1CCC1)N1C[C@@H]2C[C@@](O)(c3cc(Cl)cc4[nH]ncc34)C[C@@H]2C1 [Example 60, ((3aR,5r,6aS)-5-(6-chloro-1H-indazol-4-yl)-5-hydroxyhexahydrocyclopenta[c]pyrrol-2(1H)-yl)(cyclobutyl)methanone] | – | ≤ 500
6 | O=C(N[C@H]1[C@@H]2C[C@@](O)(c3cc(Cl)cc4[nH]ncc34)C[C@@H]21)C1CCCO1 (stereo partly drawn) [Example 75, N-((1R,3r,5S,6r)-3-(6-chloro-1H-indazol-4-yl)-3-hydroxybicyclo[3.1.0]hexan-6-yl)tetrahydrofuran-2-carboxamide] | – | ≤ 500
7 | CC1(C)C2CN(c3cc(Cl)cc4[nH]ncc34)CC2CN1C(=O)C1CC1 (stereo not shown) [Example 29, (5-(6-chloro-1H-indazol-4-yl)-1,1-dimethylhexahydropyrrolo[3,4-c]pyrrol-2(1H)-yl)(cyclopropyl)methanone] | – | 500 to 1000
8 | NCC(=O)N[C@H]1[C@@H]2C[C@@](O)(c3cc(Cl)cc4[nH]ncc34)C[C@@H]21 [Example 103, 2-amino-N-((1R,3r,5S,6r)-3-(6-chloro-1H-indazol-4-yl)-3-hydroxybicyclo[3.1.0]hexan-6-yl)acetamide hydrochloride] | – | 1000 to 5000
9 | O=C(N[C@H]1[C@@H]2C[C@@](O)(c3cc(Cl)cc4[nH]ncc34)C[C@@H]21)C1CCCCC1 [Example 85, N-((1R,3r,5S,6r)-3-(6-chloro-1H-indazol-4-yl)-3-hydroxybicyclo[3.1.0]hexan-6-yl)cyclohexanecarboxamide] | – | ≤ 500
10 | O=S(=O)(N[C@H]1[C@@H]2C[C@@](O)(c3cc(Cl)cc4[nH]ncc34)C[C@@H]21)C1CCOCC1 [Example 94, N-((1R,3r,5S,6r)-3-(6-chloro-1H-indazol-4-yl)-3-hydroxybicyclo[3.1.0]hexan-6-yl)tetrahydro-2H-pyran-4-sulfonamide] | – | ≤ 500
11 | O=C(N[C@H]1[C@@H]2C[C@@](O)(c3cc(Cl)cc4[nH]ncc34)C[C@@H]21)C1CCOCC1 [Example 91, N-((1R,3r,5S,6r)-3-(6-chloro-1H-indazol-4-yl)-3-hydroxybicyclo[3.1.0]hexan-6-yl)tetrahydro-2H-pyran-4-carboxamide] | – | ≤ 500
12 | O=S(=O)(C1CC1)N1C[C@@H]2C[C@@](O)(c3cc(Cl)cc4[nH]ncc34)C[C@@H]2C1 [Example 37, (3aR,5r,6aS)-5-(6-chloro-1H-indazol-4-yl)-2-(cyclopropylsulfonyl)octahydrocyclopenta[c]pyrrol-5-ol] | – | ≤ 500

Second part, the molecule after the results:

Row | IC50 [1] [nM] | IC50 [2] [nM] | SMILES
13 | > 5000 | ≤ 500 | CS(=O)(=O)N1C[C@H]2CC(C(O)c3cc(Cl)cc4[nH]ncc34)C[C@H]2C1 (stereo partly drawn) [Example 105, (6-chloro-1H-indazol-4-yl)((3aR,6aS)-2-(methylsulfonyl)octahydrocyclopenta[c]pyrrol-5-yl)methanol]
14 | ≤ 500 | ≤ 500 | O=C(N[C@H]1[C@@H]2C[C@@](O)(c3cc(Cl)cc4[nH]ncc34)C[C@@H]21)c1cccc(C2CC2)c1 [Example 178, N-((1R,3r,5S,6r)-3-(6-chloro-1H-indazol-4-yl)-3-hydroxybicyclo[3.1.0]hexan-6-yl)-3-cyclopropylbenzamide]
15 | ≤ 500 | ≤ 500 | O=C(N[C@H]1[C@@H]2C[C@@](O)(c3cc(Cl)cc4[nH]ncc34)C[C@@H]21)c1ccc(F)c(F)c1 [Example 168, N-((1R,3r,5S,6r)-3-(6-chloro-1H-indazol-4-yl)-3-hydroxybicyclo[3.1.0]hexan-6-yl)-3,4-difluorobenzamide]
16 | – | ≤ 500 | CC1(C)[C@H]2CN(c3cc(Cl)cc4[nH]ncc34)C[C@H]2CN1C(N)=O (racemic) [Example 31, Racemic-(3aS,6aR)-5-(6-chloro-1H-indazol-4-yl)-1,1-dimethylhexahydropyrrolo[3,4-c]pyrrole-2(1H)-carboxamide]
17 | – | ≤ 500 | CS(=O)(=O)N1C[C@@H]2CC(c3cc(Cl)cc4[nH]ncc34)=C[C@@H]2C1 (racemic) [Example 5, Racemic-6-chloro-4-((3aR,6aS)-2-(methylsulfonyl)-1,2,3,3a,4,6a-hexahydrocyclopenta[c]pyrrol-5-yl)-1H-indazole]
18 | – | ≤ 500 | O=C(C1CCCCC1)N1C[C@@H]2C[C@@](O)(c3cc(Cl)cc4[nH]ncc34)C[C@@H]2C1 [Example 62, ((3aR,5r,6aS)-5-(6-chloro-1H-indazol-4-yl)-5-hydroxyhexahydrocyclopenta[c]pyrrol-2(1H)-yl)(cyclohexyl)methanone]
19 | – | ≤ 500 | O=C(N[C@H]1[C@@H]2C[C@@](O)(c3cc(Cl)cc4[nH]ncc34)C[C@@H]21)C1CCOC1 (stereo partly drawn) [Example 72, N-((1R,3r,5S,6r)-3-(6-chloro-1H-indazol-4-yl)-3-hydroxybicyclo[3.1.0]hexan-6-yl)tetrahydrofuran-3-carboxamide]
20 | – | ≤ 500 | CC(C)S(=O)(=O)N[C@H]1[C@@H]2C[C@@](O)(c3cc(Cl)cc4[nH]ncc34)C[C@@H]21 [Example 77, N-((1R,3r,5S,6r)-3-(6-chloro-1H-indazol-4-yl)-3-hydroxybicyclo[3.1.0]hexan-6-yl)propane-2-sulfonamide]
21 | – | ≤ 500 | CC(C)(C)C(=O)N[C@H]1[C@@H]2C[C@@](O)(c3cc(Cl)cc4[nH]ncc34)C[C@@H]21 [Example 90, N-((1R,3r,5S,6r)-3-(6-chloro-1H-indazol-4-yl)-3-hydroxybicyclo[3.1.0]hexan-6-yl)pivalamide]
22 | – | ≤ 500 | CC1(C)C2CN(c3cc(Cl)cc4[nH]ncc34)CC2CN1S(C)(=O)=O (racemic) [Example 1, 6-chloro-4-(4,4-dimethyl-5-(methylsulfonyl)hexahydropyrrolo[3,4-c]pyrrol-2(1H)-yl)-1H-indazole]
23 | – | ≤ 500 | COC(=O)N[C@H]1[C@@H]2C[C@@](O)(c3cc(Cl)cc4[nH]ncc34)C[C@@H]21 [Example 80, methyl ((1R,3r,5S,6r)-3-(6-chloro-1H-indazol-4-yl)-3-hydroxybicyclo[3.1.0]hexan-6-yl)carbamate]
24 | – | ≤ 500 | CC(C)(C)OC(=O)N1C[C@@H]2C[C@@](O)(c3cc(Cl)cc4[nH]ncc34)C[C@@H]2C1 [Example 54, (3aR,5r,6aS)-tert-butyl 5-(6-chloro-1H-indazol-4-yl)-5-hydroxyhexahydrocyclopenta[c]pyrrole-2(1H)-carboxylate]
